# According to PubChem BioAssay AID328 (DTP/NCI, 2004):
# Where “and” joins values, the source holds several entries; their conditions need not be identical. Equal entries are not always repeated. Inconclusive results and toxic doses are left out.
# Tested on: BDF1 mice, P388 leukemia ip, median survival T/C
# Assay: NCI In Vivo Anticancer Drug Screen. Data for tumor model P388 Leukemia (intraperitoneal) in B6D2F1 (BDF1) mice
# Settings: endpoint: median survival time, higher = longer survival
# Method in brief: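 In tumour-bearing mice, survival after compound treatment is set against the vehicle group and given as a quotient.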
# [1] = dose: 12.5 mg/kg/injection, schedule: Q01DX009 (ip), vehicle: water
# [2] = dose: 25.0 mg/kg/injection, schedule: Q01DX009 (ip), vehicle: water
# [3] = dose: 50.0 mg/kg/injection, schedule: Q01DX009 (ip), vehicle: saline
# [4] = dose: 200.0 mg/kg/injection, schedule: Q01DX009 (ip), vehicle: saline
# [5] = dose: 100.0 mg/kg/injection, schedule: Q04DX003 (ip), vehicle: saline with Tween-80
# [6] = dose: 200.0 mg/kg/injection, schedule: Q04DX003 (ip), vehicle: saline with Tween-80
# [7] = dose: 400.0 mg/kg/injection, schedule: Q04DX003 (ip), vehicle: saline with Tween-80
# [8] = dose: 25.0 mg/kg/injection, schedule: Q04DX003 (ip), vehicle: Klucel (hydroxypropylcellulose) (HPC)
# [9] = dose: 50.0 mg/kg/injection, schedule: Q04DX003 (ip), vehicle: Klucel (hydroxypropylcellulose) (HPC)
# [10] = dose: 100.0 mg/kg/injection, schedule: Q04DX003 (ip), vehicle: saline
# [11] = dose: 200.0 mg/kg/injection, schedule: Q04DX003 (ip), vehicle: saline
# [12] = dose: 25.0 mg/kg/injection, schedule: Q01DX009 (ip), vehicle: saline with Tween-80
compound,measurement,setting,value
O=C(NO)Nc1nc(Cl)c(Cl)nc1Cl,T/C,"dose: 3.12 mg/kg/injection, schedule: Q01DX009 (ip), vehicle: water",104 % of control
same,T/C,"dose: 6.25 mg/kg/injection, schedule: Q01DX009 (ip), vehicle: water",110 % of control
same,T/C,"dose: 6.25 mg/kg/injection, schedule: Q04DX003 (ip), vehicle: water",98 % of control and 101 % of control
same,T/C,[1],110 % of control
same,T/C,"dose: 12.5 mg/kg/injection, schedule: Q04DX003 (ip), vehicle: water",100 % of control and 113 % of control
same,T/C,[2],118 % of control
same,T/C,"dose: 25.0 mg/kg/injection, schedule: Q04DX003 (ip), vehicle: water",98 % of control and 118 % of control
same,T/C,"dose: 50.0 mg/kg/injection, schedule: Q04DX003 (ip), vehicle: water",100 % of control and 109 % of control
same,T/C,"dose: 100.0 mg/kg/injection, schedule: Q01DX009 (ip), vehicle: water",118 % of control
same,T/C,"dose: 100.0 mg/kg/injection, schedule: Q04DX003 (ip), vehicle: water",109 % of control
CC1COB(c2ccccc2)OCC(C)N1CNC(=O)C1=C(O)C2(O)C(O)=C3C(=O)C4C(O)=CC=CC4C(C)(O)C3CC2C(N(C)C)C1=O (stereo unspecified),T/C,[3],109 % of control
same,T/C,"dose: 100.0 mg/kg/injection, schedule: Q01DX009 (ip), vehicle: saline",98 % of control
same,T/C,[4],111 % of control
CCOc1ccc(Br)cc1/C=N/NS(=O)(=O)c1ccc(C)cc1,T/C,[5],109 % of control
same,T/C,"dose: 176.0 mg/kg/injection, schedule: Q04DX003 (ip), vehicle: saline with Tween-80",120 % of control
same,T/C,[6],109 % of control
same,T/C,"dose: 264.0 mg/kg/injection, schedule: Q04DX003 (ip), vehicle: saline with Tween-80",120 % of control
same,T/C,[7],120 % of control
Cc1ccccc1C(=O)NCC(=O)O,T/C,[5],104 % of control
same,T/C,[6],100 % of control
same,T/C,[7],100 % of control
Oc1cc(CN(CCCl)CCCl)c(O)cc1CN(CCCl)CCCl,T/C,"dose: 0.63 mg/kg/injection, schedule: Q01DX010 (ip), vehicle: saline",170 % of control
same,T/C,"dose: 1.25 mg/kg/injection, schedule: Q01DX010 (ip), vehicle: saline",163 % of control and 210 % of control
same,T/C,"dose: 2.5 mg/kg/injection, schedule: Q01DX010 (ip), vehicle: saline",177 % of control and 220 % of control
same,T/C,"dose: 5.0 mg/kg/injection, schedule: Q01DX010 (ip), vehicle: saline",165 % of control
CC1=C(Br)C(=O)C(Br)=C(Br)C1=O,T/C,[8],104 % of control
same,T/C,"dose: 35.0 mg/kg/injection, schedule: Q01DX009 (ip), vehicle: Klucel (hydroxypropylcellulose) (HPC)",109 % of control
same,T/C,"dose: 37.5 mg/kg/injection, schedule: Q01DX001 (ip), vehicle: Klucel (hydroxypropylcellulose) (HPC)",95 % of control
same,T/C,[9],100 % of control
same,T/C,"dose: 55.0 mg/kg/injection, schedule: Q01DX009 (ip), vehicle: Klucel (hydroxypropylcellulose) (HPC)",90 % of control
same,T/C,"dose: 75.0 mg/kg/injection, schedule: Q01DX001 (ip), vehicle: Klucel (hydroxypropylcellulose) (HPC)",109 % of control
same,T/C,"dose: 100.0 mg/kg/injection, schedule: Q04DX003 (ip), vehicle: Klucel (hydroxypropylcellulose) (HPC)",90 % of control
same,T/C,"dose: 150.0 mg/kg/injection, schedule: Q01DX001 (ip), vehicle: Klucel (hydroxypropylcellulose) (HPC)",100 % of control
CCN1CCN(Cc2ccccc2)C(CCl)C1 (stereo unspecified),T/C,"dose: 12.5 mg/kg/injection, schedule: Q04DX003 (ip), vehicle: Klucel (hydroxypropylcellulose) (HPC)",100 % of control
same,T/C,[8],100 % of control
same,T/C,[9],100 % of control
O=c1[nH]c(=O)n(C2CC(O)C(CO)O2)cc1I (stereo unspecified),T/C,"dose: 10.0 mg/kg/injection, schedule: Q01DX009 (ip), vehicle: saline with Tween-80",109 % of control
same,T/C,"dose: 20.0 mg/kg/injection, schedule: Q01DX009 (ip), vehicle: saline with Tween-80",107 % of control
same,T/C,"dose: 40.0 mg/kg/injection, schedule: Q01DX009 (ip), vehicle: saline with Tween-80",92 % of control and 109 % of control
same,T/C,"dose: 80.0 mg/kg/injection, schedule: Q01DX009 (ip), vehicle: saline with Tween-80",106 % of control and 118 % of control
same,T/C,"dose: 320.0 mg/kg/injection, schedule: Q01DX009 (ip), vehicle: saline with Tween-80",90 % of control
COC(=O)C12OCC34C(CC5C(C)=C(O)C(=O)CC5(C)C3C(O)C1O)OC(=O)C(O)C24 (stereo unspecified),T/C,"dose: 5.0 micrograms/kg/injection, schedule: Q01DX009 (ip), vehicle: saline",100 % of control
same,T/C,"dose: 10.0 micrograms/kg/injection, schedule: Q01DX009 (ip), vehicle: saline",109 % of control
same,T/C,"dose: 20.0 micrograms/kg/injection, schedule: Q01DX009 (ip), vehicle: saline",118 % of control
N#CCN1CCOCC1,T/C,"dose: 75.0 mg/kg/injection, schedule: Q01DX009 (ip), vehicle: saline",104 % of control
same,T/C,[10],104 % of control
same,T/C,"dose: 150.0 mg/kg/injection, schedule: Q01DX009 (ip), vehicle: saline",95 % of control
same,T/C,[11],104 % of control
CSc1ncc2n1C=CN(C(=O)c1ccc([N+](=O)[O-])cc1)C2O (stereo unspecified),T/C,"dose: 12.5 mg/kg/injection, schedule: Q01DX009 (ip), vehicle: saline",99 % of control
same,T/C,"dose: 25.0 mg/kg/injection, schedule: Q01DX009 (ip), vehicle: saline",87 % of control
same,T/C,"dose: 25.0 mg/kg/injection, schedule: Q04DX003 (ip), vehicle: saline",107 % of control
same,T/C,[3],92 % of control
same,T/C,"dose: 50.0 mg/kg/injection, schedule: Q04DX003 (ip), vehicle: saline",94 % of control
same,T/C,[10],93 % of control
same,T/C,[11],90 % of control
OCCOc1c(Cl)c(Cl)c(Cl)c(Cl)c1Cl,T/C,[12],100 % of control
same,T/C,"dose: 50.0 mg/kg/injection, schedule: Q01DX009 (ip), vehicle: saline with Tween-80",104 % of control
same,T/C,"dose: 50.0 mg/kg/injection, schedule: Q04DX003 (ip), vehicle: saline with Tween-80",100 % of control
same,T/C,"dose: 100.0 mg/kg/injection, schedule: Q01DX009 (ip), vehicle: saline with Tween-80",118 % of control
same,T/C,[5],100 % of control
CN1CCCc2cccc(NC(=O)C3CCCNC3=O)c21 (stereo unspecified),T/C,[5],101 % of control
same,T/C,[6],100 % of control
same,T/C,[7],116 % of control
CC(=O)C(C)[P+](c1ccccc1)(c1ccccc1)c1ccccc1 (stereo unspecified),T/C,"dose: 2.0 mg/kg/injection, schedule: Q01DX009 (ip), vehicle: water",95 % of control
same,T/C,"dose: 4.0 mg/kg/injection, schedule: Q01DX009 (ip), vehicle: water",100 % of control
same,T/C,"dose: 8.0 mg/kg/injection, schedule: Q01DX009 (ip), vehicle: water",93 % of control
same,T/C,[1],96 % of control
same,T/C,"dose: 16.0 mg/kg/injection, schedule: Q01DX009 (ip), vehicle: water",103 % of control
same,T/C,[2],91 % of control
Cc1ccc(NC(=O)N(CCCl)N=O)cc1NC(=O)N(CCCl)N=O,T/C,"dose: 1.25 mg/kg/injection, schedule: Q04DX003 (ip), vehicle: other",179 % of control
same,T/C,"dose: 2.5 mg/kg/injection, schedule: Q04DX003 (ip), vehicle: other",175 % of control
same,T/C,"dose: 3.12 mg/kg/injection, schedule: Q01DX009 (ip), vehicle: other",204 % of control
same,T/C,"dose: 3.13 mg/kg/injection, schedule: Q01DX009 (ip), vehicle: saline with Tween-80",185 % of control
same,T/C,"dose: 5.0 mg/kg/injection, schedule: Q04DX003 (ip), vehicle: other",200 % of control
same,T/C,"dose: 6.25 mg/kg/injection, schedule: Q01DX009 (ip), vehicle: other",207 % of control
same,T/C,"dose: 6.25 mg/kg/injection, schedule: Q01DX009 (ip), vehicle: saline with Tween-80",221 % of control
same,T/C,"dose: 6.25 mg/kg/injection, schedule: Q04DX003 (ip), vehicle: other",166 % of control
same,T/C,"dose: 12.5 mg/kg/injection, schedule: Q01DX009 (ip), vehicle: saline with Tween-80",221 % of control
same,T/C,[12],113 % of control
same,T/C,"dose: 25.0 mg/kg/injection, schedule: Q04DX003 (ip), vehicle: other",177 % of control
COc1ccc2c(c1)CCN1C2CCN2C(=O)CCC21 (stereo unspecified),T/C,"dose: 100.0 mg/kg/injection, schedule: Q01DX009 (ip), vehicle: saline sonified",104 % of control
same,T/C,"dose: 200.0 mg/kg/injection, schedule: Q01DX009 (ip), vehicle: saline sonified",113 % of control
same,T/C,"dose: 400.0 mg/kg/injection, schedule: Q01DX009 (ip), vehicle: saline sonified",100 % of control
Cc1c(N)nc(Br)c2ccccc12,T/C,"dose: 100.0 mg/kg/injection, schedule: Q04DX003 (ip), vehicle: saline sonified",91 % of control
same,T/C,"dose: 200.0 mg/kg/injection, schedule: Q04DX003 (ip), vehicle: saline sonified",116 % of control
CCNC(=O)c1cc2cccc(OC)c2oc1=N,T/C,[4],86 % of control
